Here are results for two molecules from US20260234159A1, “SMALL MOLECULE TREATMENT OF FATTY LIVER DISEASE AND HCC” (SCANDIEDGE THERAPEUTICS AB, priority 2023, published 2026).

Molecules are shown by their SMILES.

A short description of series [1]: MTT cell viability / IC50 in growth media. It is filed as cell-based, human. The following applies: human, HepG2 cells, 10 μM; for viability at 4 day, 10 µM: day 4; for viability at 2 days, 10 µM: treatment for 2 days. Here is the method: (§1) The cytotoxic effects of the synthesized drugs on the HepG2 cells were tested by MTT (Thiazolyl Blue Tetrazolium Bromide) method. HepG2 cells were seeded 2×10^4 cells per well in 96-well plate in 200 μL growth media. […] After the incubation period, 5 mg/ml MTT (M2128, Sigma-Aldrich) solution in PBS (10 μL) was added to each well. After 1 hr, the MTT solution and all media were removed from the wells. 100 μl of DMSO was added and mixed to dissolve the formazan crystals. Cell viability was analysed by measuring the absorbance of the dissolved formazan in a microplate reader at a wavelength of 570 nm with microplate reader (Hidex Sense Beta Plus).
(§2) HepG2 cells were maintained and used with RPMI 1640 (R2405, Sigma-Aldrich) supplemented with 10% fetal bovine serum (F7524, Sigma-Aldrich), 1% P/S (P4333, Sigma-Aldrich). 20,000 cells per well of HepG2 cells were seeded into a 96-well plate and triplicated for MTT assay and LDH assay. Cell viability was measured by MTT assay (M6494, ThermoFisher) and cytotoxicity was measured by LDH assay kit (ab65393, abcam) by following manufacturer's instructions. Optical density (O.D) was numerated using a microplate reader (Hidex Sense Meta Plus).

Series [2] deals with HepG2 cells. The series can be described thus: MTT cell viability / IC50 in growth media. It is filed as cell-based, human. The following applies: 30 μM to 30 nM; for IC50: Homo sapiens, 48 h, HepG2, treatment for 2 days. Here is the method: as §1, §2
The test system of the next series is PARP. The series can be described thus: Western blot, cleaved PARP. It is filed as cell-based, human. As to conditions: 10 μM, 2 days. Here is the method: (§3) HepG2 cells were seeded into a 6-well plate at 400,000 cells per well. After treatment with 10 μM of JNK-IN-5A and its derivatives for two days, lysates were harvested with CelLytic M (C2978, Sigma-Aldrich). 20 μg lysate was prepared with 2× Laemmli Sample Buffer (1610737, Biorad). SDS PAGE were performed using Mini-PROTEAN® TGX™ Precast Gels (Bio-Rad) and transferred using Trans-Blot® Turbo™ Transfer System (Bio-Rad). Primary antibody, PARP (95425, Cell signalling), Caspase 3 (ab32042, abcam), Bcl-2 (ab182858), STAT1 (HPA000982, Merk), PKL (06653, Sigma), PKM (4053S, Cell signalling), GAPDH (ab8245, abcam), P53 (ab32389, abcam), p21 (ab109199, abcam), p-S349 p62 (ab211324, abcam), p62 (ab109012, abcam), c-Myc (ab32072, abcam), GPX4 (ab125066, abcam), MMP9 (MA5-32705, Invitrogen), β-actin (ab8227, abcam), and α-tubulin (ab7291, abcam) were blotted overnight and Goat Anti-Rabbit HRP (ab205718) and goat anti-mouse IgG-HRP (sc2005, Santa Cruz Biotechnology, Inc.) were blotted for secondary antibody for one hour. ImageQuantTMLAS 500 (29-0050-63, GE) was used to detect protein bands.

The test system of another series is Caspase 3. The series can be described thus: Western blot, active caspase 3. It is filed as cell-based, human. The following applies: 10 μM, 2 days. Here is the method:
as §3
For orientation: A western blot detects proteins with antibodies after separation by electrophoresis.

In another series the test system is JNK1/2/3. The series can be described thus: Western blot, JNK1/2/3 P54 and p46 isoforms. It is filed as cell-based, human. As to conditions: 10 μM, 2 days. Here is the method: HepG2 cells were seeded into a 6-well plate at 400,000 cells per well. After treatment with 10 μM of JNK-IN-5A and its derivatives for two days, lysates were harvested with CelLytic M (C2978, Sigma-Aldrich). […] SDS PAGE were performed using Mini-PROTEAN® TGX™ Precast Gels (Bio-Rad) and transferred using Trans-Blot® Turbo™ Transfer System (Bio-Rad). […] ImageQuantTMLAS 500 (29-0050-63, GE) was used to detect protein bands.

The next series relates to c-Myc. The series can be described thus: Nuclear protein western blot, c-Myc. As to conditions: 10 μM, 2 days. It is filed as cell-based, human. Here is the method: as §3
Another series has as its system p21. The series can be described thus: Nuclear protein western blot, p21. It is filed as cell-based, human. As to conditions: 10 μM, 2 days. Here is the method:
as §3

Another series concerns GPX4. The series can be described thus: Western blot, GPX4. It is filed as cell-based, human. The following applies: compared to the control. Here is the method:
as §3

Series [3] has as its system HepG2 cells. The series can be described thus: FACs analysis with PI staining (cell cycle). It is filed as cell-based, human. As to conditions: for cell cycle distribution / arrest: PI FACS. Here is the method: 400,000 HepG2 cells were seeded in a 6-well plated and treated with 10 μM of the compounds for 2 days. Cells were fixed with 70% ethanol and stained with 50 μg/ml PI. Prepared cells were analysed using BD FACS Canto II Flow Cytometry system at PE-A channel 10,000 cells per group. The data was histogram plotted with BD FACSDiva 9.0.

Series [4] concerns HepG2 cells. The series can be described thus: Mitochondrial membrane potential assay (TMRE). As to conditions: 10 μM, one day. It is filed as cell-based, human. Here is the method: (§4) HepG2 cells were seeded into a 6-well plate at 400,000 cells per well. After treatment with the compounds at desired concentration and time, TMRE (ab113852, abcam), Autophagy (ab139484, abcam), ROS (ab113851, abcam), and Lipid peroxidation (ab243377, abcam) assay were performed according to manufacturer's instructions. Fluorescence images were taken using ZOE™ Fluorescent Cell Imager (Biorad) and ROI of fluorescence intensity was measured and calculated by Image J. For microplate reader florescence assay, 40,000 of HepG2 cells were seeded into a 96-well plate and triplicated. GFP (Ex480 nm, Em530 nm) and RFP (Ex549 nm, Em574 nm) were measured using a microplate reader (Hidex Sense Meta Plus).

Series [5] relates to HepG2 cells. The series can be described thus: Autophagy assay. It is filed as cell-based, human. As to conditions: 10 μM, one day. Here is the method: as §4
Series [6] deals with HepG2 cells. The series can be described thus: Invasion assay (transwell). It is filed as cell-based, human. Here is the method:
The effects of the treatment with the compounds on the invasion ability of HepG2 and Huh7 cells were determined by 8 μm pores transwell chamber (Corning™ 3464, USA).
(§5) Transwell membrane was coated with 100 μl collagen (Sigma C3867, USA) diluted with PBS to a concentration of 1 mg/ml. After overnight incubation at 4° C., the collagen solution was discarded and the membrane was washed with PBS. 100,000 cells in 200 μl serum free media together with the tested compounds were added into the upper well and 600 μl of 10% FBS supplemented growth media was added to the lower well as an invasive attractant in a 24-well plate. Cells were incubated at 37° C. in a CO2 incubator for one day. The cells were fixed with 3.7% formaldehyde for 30 minutes at room temperature and washed with PBS twice. The cells were stained with 1% crystal violet in PBS for 20 minutes and residual cells in inner membrane were swabbed gently with a cotton swab. Invaded cells located at the outer membrane were imaged by ZOE Fluorescent Cell Imager (Bio-Rad, USA) and counted by image. For wound healing assay, 100,000 cells per well were seeded into 24-well plates and grown until 95-100% confluent. Linear wound was created by using a 200 μl pipette tip. Image was recorded at the time point of day 0 until control group wound closure with 1 μM of compounds by ZOE Fluorescent Cell Imager (Bio-Rad, USA). Wound areas were measured using ImageJ software.

Series [7] deals with HepG2 cells. The series can be described thus: Wound healing assay. The following applies: Homo sapiens, HepG2, 96 h, day 4, untreated 100% wound closure, read-out: wound healing delayed by. It is filed as cell-based. Here is the method: as §5

In the case of `CNC(=O)c1cc(Oc2ccc(NC(=O)Nc3ccc(Cl)c(C(F)(F)F)c3)c(F)c2)ccn1` [Regorafenib, regorafenib, reference compound], in [1], the viability (commonly a per cent measure of how many cells are alive, often set against a control) at 4 day, 10 µM came out at 13.4% and the viability at 2 days, 10 µM was 41.1%. In the series on HepG2 cells [2], the “dose dependence of cell viability” value is “dose-dependent decrease in cell viability” and 5.91 µM corresponded to half-maximal inhibition (IC50). Besides, the “increase in cleaved PARP vs untreated control” value in the series on PARP is 16 times. Besides, the “active caspase 3 levels” value in the series with Caspase 3 came to 3.61 times. Also, in the series on JNK1/2/3, the “JNK1/2/3 p46 expression” value is listed as 0.65 times. Moreover, the “nuclear c-Myc expression” value in the series on c-Myc is listed as “decreased”. The p21 nuclear localization entry with p21 is given as “not”. Besides, in the series with GPX4, the GPX4 expression levels entry is “significantly higher”. For the same molecule, in the series on HepG2 cells [3], the “cell cycle distribution / arrest” value is reported as “did not alter the cell cycle distribution significantly”. Further, in the series with HepG2 cells [3] (PI FACs, 10 μM, 2 days), the “Cell population G0/G1” value is 70.5, the “Cell population G2/M” value is 14.9 and the “Cell population S” value is listed as 9.7. Moreover, the mitochondrial membrane potential entry in the series on HepG2 cells [4] is reported as “decrease”. In addition, the “autophagy GFP signals” value with HepG2 cells [5] is “did not induce autophagy”. Also, the inhibition at 1 µM in the series with HepG2 cells [6] (Homo sapiens, HepG2, 24 hr, read-out: invasiveness reduced by) came to 21%. Moreover, the inhibition at 1 µM with HepG2 cells [7] amounted to 44.8%.

For `CNC(=O)c1cc(Oc2ccc(NC(=O)Nc3ccc(Cl)c(C(F)(F)F)c3)cc2)ccn1` [Sorafenib, sorafenib, reference compound], in series [1], the viability at 4 day, 10 µM was 19.2% and the viability at 2 days, 10 µM is 51%. Moreover, in the series on HepG2 cells [2], the “dose dependence of cell viability” value is listed as “dose-dependent decrease in cell viability” and inhibition was half-maximal at 8.64 µM (IC50). Also, in the series with PARP, the “increase in cleaved PARP vs untreated control” value was 10 times. The “active caspase 3 levels” value in the series on Caspase 3 came out at 4.35 times. For the same molecule, the “JNK1/2/3 p46 expression” value in the series with JNK1/2/3 came to 0.81 times. For the same molecule, in the series with c-Myc, the “nuclear c-Myc expression” value is given as “decreased”. The p21 nuclear localization entry in the series with p21 is recorded as “not”. The GPX4 expression levels result in the series on GPX4 is reported as “significantly higher”. Also, the “cell cycle distribution / arrest” value in the series on HepG2 cells [3] is “did not alter the cell cycle distribution significantly”. Besides, the “Cell population S” value with HepG2 cells [3] (PI FACs, 10 μM, 2 days) amounted to 10.1. For the same molecule, the mitochondrial membrane potential entry in the series with HepG2 cells [4] is “decrease”. Besides, in the series on HepG2 cells [5], the “autophagy GFP signals” value is on record as “did not induce autophagy”. The “invasiveness reduced by” value in the series with HepG2 cells [6] (1 μM, 24 hr) is listed as 28.7%±2.9. The inhibition at 1 µM in the series with HepG2 cells [7] turned out to be 35%.
